Read-outs that look alike come from different tables or passages of the source.
Assays:
Type in all cases: cell-based
[1] = test system: Leishmania donovani axenic amastigote; assay: In vitro assay for growth inhibition of Leishmania donovani axenic amastigote (Cell TiterGlo luminescence); details: L. donovani axenic amastigotes in vitro, read-out: L. donovani amastigotes EC50
Procedure, shortened: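 Axenic L. donovani amastigotes (9600/well) grown at 37 °C, 5% CO2 in supplemented RPMI 1640, pH 5.5, with compound added from DMSO. After two days, viability read by CellTiter-Glo luminescence against DMSO and control-compound wells.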

[2] = test system: L. donovani HU3 strain in mouse peritoneal macrophages; assay: Assay for inhibition of parasitemia of Leishmania donovani in mouse macrophages (SYBR Green nuclei count, high-content imaging); details: read-out: L. donovani in Mouse Macrophages EC50
From the text: Assay for Inhibition of Parasitemia of Leishmania donovani in Mouse Macrophages
The assay measures the increase in the parasite number in the assayed plate well using a DNA intercalating dye, SYBR Green I® dye (INVITROGEN) to stain Leishmania cell nuclei. L. donovani HU3 strain is propagated by infecting BALB/c mice through tail vein injection with 10^7 Leishmania parasites. Infected mice are allowed to develop infection during 9-11 weeks post-infection. During this time, the parasites accumulate in the infected mouse spleens to large numbers, and the infected mice serve as the source of parasites for the in vitro measurement of compound efficacies. To assay a compound for anti-leishmanial activity, peritoneal macrophages isolated from non-infected BALB/c mice are seeded into 384-well plates at density 2×10^4 macrophages per well in […] of medium (RPM11640, 10% fetal serum albumin, 10 mM HEPES, 1 mM sodium pyruvate, 1% Pen/Strep). Subsequently, the seeded plates are placed into an incubator set to maintain 37° C. temperature and atmosphere with 5% CO2.
The next day, Leishmania parasites are isolated from the spleens of mice infected for 9-11 weeks and 4×10^5 isolated parasites in […] of the above media are added to each plate well. Plates are then returned into incubators and infection is allowed to proceed for 24 hours. After the infection of macrophages is completed, […] of compounds of the invention in the above medium, which also contains 5% DMSO, are added to plate wells containing infected macrophages. At the same time control compounds (miltefosine and amphotericin B) and DMSO are added to plates to serve as the positive and negative controls, respectively. After the compound addition, the plates are returned into incubator and cells infected with parasites are cultured for 5 days. At the end of cultivation, […] of 8% paraformaldehyde is added to plate wells and incubated for 15 min at room temperature. Following the incubation, the paraformaldehyde from plate wells is aspirated, and […] of PBS containing 0.2% Triton X-100 is added to wells. After 15 min incubation, the solution is aspirated from wells again, and replaced with Sybr® Green Dye solution in PBS (1:125,000 dilution). Infected cells are imaged with Evotec Opera high-content microscope, and the number of parasites in well is determined by counting parasite nuclei visualized by staining with Sybr® Green dye.

[3] = test system: Trypanosoma cruzi amastigotes cultured in 3T3 fibroblast cells; assay: Assay for growth inhibition of kinetoplastid parasite Trypanosoma cruzi (beta-galactosidase Tulahuen strain, CPRG readout); details: T. cruzi amastigotes in 3T3 fibroblast cells, read-out: Buckner infectious T. cruzi EC50
Procedure, shortened: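 3T3 fibroblasts (1,000 cells/well) plated overnight, treated with compound in DMSO, then infected with 10,000 Lac-Z-expressing Tulahuen trypomastigotes. After 6 days, 0.6 mM CPRG with 0.6% NP-40 added for 2 h at room temperature; absorbance gives relative intracellular amastigote numbers. Benznidazole and nifurtimox serve as positive controls.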

[4] = test system: Trypanosoma brucei brucei (Lister 427) strain; assay: Assay for growth inhibition against Trypanosoma brucei brucei (Cell TiterGlo ATP luminescence); details: T. brucei brucei (Lister 427), read-out: T. Brucei (HAT) EC50
Procedure, shortened: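 T. b. brucei Lister 427 grown in HMI-9 with 10% FBS and 10% serum plus, seeded at 10,000 parasites/mL with 10-point threefold compound dilutions in duplicate, 37 °C for 2 days. Viability read as ATP luminescence 30 min after Cell TiterGlo; IC50 versus untreated controls.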

[5] = L. donovani in mouse peritoneal macrophages
[6] = Leishmania donovani, Peritoneal macrophage, L. donovani in mouse peritoneal macrophages

SMILES	EC50 ([1]; Leishmania donovani) [nM]	EC50 [2, 5] [nM]	EC50 ([3]; Trypanosoma cruzi, Fibroblast) [nM]	EC50 [4] [nM]	EC50 [1] [nM]	EC50 [3] [nM]	EC50 [2, 6] [nM]	EC50 ([4]; Trypanosoma brucei) [nM]	EC50 ([2]; Leishmania donovani, Peritoneal macrophage) [nM]	EC50 ([3]; Trypanosoma cruzi) [nM]
O=C(Nc1ccc(F)c(-n2cc3cc(N4CC(F)(F)C4)cnc3n2)c1)[C@@H]1C[C@H]1F (single isomer, unassigned) [Compound 268, (1 S,2R)—N-(3-(5-(3,3-difluoroazetidin-1-yl)-2H-pyrazolo[3,4-b]pyridin-2-yl)-4-fluorophenyl)-2-fluorocyclopropane-1-carboxamide or (1R,2S)—N-(3-(5-(3,3-difluoroazetidin-1-yl)-2H-pyrazolo[3,4-b]pyridin-2-yl)-4-fluorophenyl)-2-fluorocyclopropane-1-carboxamide]	84	273	82	116						
O=C(Nc1ccc(F)c(-n2cc3cc(-c4ccccn4)cnc3n2)c1)[C@H]1C[C@@H]1F (single isomer, unassigned) [Compound 269, (1 S,2R)-2-fluoro-N-(4-fluoro-3-(5-(pyridin-2-yl)-2H-pyrazolo[3,4-b]pyridin-2-yl)phenyl)cyclopropane-1-carboxamide or (1R,2S)-2-fluoro-N-(4-fluoro-3-(5-(pyridin-2-yl)-2H-pyrazolo[3,4-b]pyridin-2-yl)phenyl)cyclopropane-1-carboxamide]	19	32	9	20						
O=C(Nc1ccc(F)c(-n2cc3cc(N4CC(F)(F)C4)cnc3n2)c1)[C@@H]1C[C@H]1F (single isomer, unassigned) [Compound 271, (1 S,2R)—N-(3-(5-(3,3-difluoroazetidin-1-yl)-2H-pyrazolo[3,4-b]pyridin-2-yl)-4-fluorophenyl)-2-fluorocyclopropane-1-carboxamide or (1R,2S)—N-(3-(5-(3,3-difluoroazetidin-1-yl)-2H-pyrazolo[3,4-b]pyridin-2-yl)-4-fluorophenyl)-2-fluorocyclopropane-1-carboxamide]		3		388	120	144				
O=C(Nc1ccc(F)c(-n2cc3cc(-c4ccccn4)cnc3n2)c1)[C@H]1C[C@@H]1F (single isomer, unassigned) [Compound 273, (1 S,2R)-2-fluoro-N-(4-fluoro-3-(5-(pyridin-2-yl)-2H-pyrazolo[3,4-b]pyridin-2-yl)phenyl)cyclopropane-1-carboxamide or (1R,2S)-2-fluoro-N-(4-fluoro-3-(5-(pyridin-2-yl)-2H-pyrazolo[3,4-b]pyridin-2-yl)phenyl)cyclopropane-1-carboxamide]		6		45	27	17				
O=C(Nc1ccc(F)c(-n2cc3cc(N4CC(F)(F)C4)cnc3n2)c1)[C@H]1C[C@@H]1F (single isomer, unassigned) [Compound 339]	1590		112				310	163		
Cc1cccnc1-c1cnc2nn(-c3cc(NC(=O)c4ccco4)ccc3F)cc2c1 [Compound 2, N-(4-fluoro-3-(5-(3-methylpyridin-2-yl)-2H-pyrazolo[3,4-b]pyridin-2-yl)phenyl)furan-2-carboxamide]	3		1				4.4	< 23		
Cc1cccnc1-c1cnc2nn(-c3cc(NC(=O)N4CCC4)ccc3F)cc2c1 [Compound 3, N-(4-fluoro-3-(5-(3-methylpyridin-2-yl)-2H-pyrazolo[3,4-b]pyridin-2-yl)phenyl)azetidine-1-carboxamide]	1.8		1.6				2	< 23		
CC(C)Cc1cnc2nn(-c3cc(NC(=O)N4CCC4)ccc3F)cc2c1 [Compound 7, N-(4-fluoro-3-(5-isobutyl-2H-pyrazolo[3,4-b]pyridin-2-yl)phenyl)azetidine-1-carboxamide]	7.7		1.6				4	< 23		
CC(C)Cc1cnc2nn(-c3cc(NC(=O)N4CC(F)(F)C4)ccc3F)cc2c1 [Compound 8, 3,3-difluoro-N-(4-fluoro-3-(5-isobutyl-2H-pyrazolo[3,4-b]pyridin-2-yl)phenyl)azetidine-1-carboxamide]	7.7		4.5				3.3	< 23		
CN(C)c1cnc2nn(-c3cc(NC(=O)N4CC(F)(F)C4)ccc3F)cc2c1 [Compound 9, N-(3-(5-(dimethylamino)-2H-pyrazolo[3,4-b]pyridin-2-yl)-4-fluorophenyl)-3,3-difluoroazetidine-1-carboxamide]	8.7		9.8				11	35		
O=C(Nc1ccc(F)c(-n2cc3cc(N4CCC4)cnc3n2)c1)N1CCC1 [Compound 10, N-(3-(5-(azetidin-1-yl)-2H-pyrazolo[3,4-b]pyridin-2-yl)-4-fluorophenyl)azetidine-1-carboxamide]	16							< 23	7.8	4.8
CC(C)Cc1cnc2nn(-c3cc(NC(=O)N4CC(F)C4)ccc3F)cc2c1 [Compound 14, 3-fluoro-N-{4-fluoro-3-[5-(2-methylpropyl)-2H-pyrazolo[3,4-b]pyridin-2-yl]phenyl}azetidine-1-carboxamide]	12		2				9.7	< 23		
O=C(Nc1ccc(F)c(-n2cc3cc(C4CC4)cnc3n2)c1)N1CC(F)C1 [Compound 15, N-(3-{5-cyclopropyl-2H-pyrazolo[3,4-b]pyridin-2-yl}-4-fluorophenyl)-3-fluoroazetidine-1-carboxamide]	13		5				17	< 23		
O=C(Nc1ccc(F)c(-n2cc3cc(C4CCCCC4)cnc3n2)c1)N1CC(F)C1 [Compound 19, N-(3-{5-cyclohexyl-2H-pyrazolo[3,4-b]pyridin-2-yl}-4-fluorophenyl)-3-fluoroazetidine-1-carboxamide]	11		11				81	< 23		
O=C(Nc1ccc(F)c(-n2cc3cc(C4CCC4)cnc3n2)c1)N1CC(F)C1 [Compound 20, N-(3-{5-cyclobutyl-2H-pyrazolo[3,4-b]pyridin-2-yl}-4-fluorophenyl)-3-fluoroazetidine-1-carboxamide]	10		4.2				37	< 23		
CC(C)(C)Cc1cnc2nn(-c3cc(NC(=O)N4CC(F)C4)ccc3F)cc2c1 [Compound 21, N-{3-[5-(2,2-dimethylpropyl)-2H-pyrazolo[3,4-b]pyridin-2-yl]-4-fluorophenyl}-3-fluoroazetidine-1-carboxamide]	7.7		1.7				6.5	< 23		
CC(C)(C)c1cnc2nn(-c3cc(NC(=O)N4CC(F)C4)ccc3F)cc2c1 [Compound 22, N-(3-{5-tert-butyl-2H-pyrazolo[3,4-b]pyridin-2-yl}-4-fluorophenyl)-3-fluoroazetidine-1-carboxamide]	28		7.2				21000	< 23		
CCCC(C)c1cnc2nn(-c3cc(NC(=O)N4CC(F)C4)ccc3F)cc2c1 (stereo not drawn) [Compound 23, 3-fluoro-N-{4-fluoro-3-[5-(pentan-2-yl)-2H-pyrazolo[3,4-b]pyridin-2-yl]phenyl}azetidine-1-carboxamide]	140		78				110	< 23		

Source: patent US11384078B2, “5,6-fused-bicyclic compounds and compositions for the treatment of parasitic diseases” (NOVARTIS AG, priority 2017, dated 2022)
